According to patent US12458630B2, “Combination therapy for cancer” (The Regents of the University of California, priority 2020, dated 2025):
Entries after “also recorded” stand apart in the source; their conditions may differ.

Columns and labels:
[1] = tested on: 1444 primary human PDAC cells; assay: Cell viability assay (CCK-8); format: cell-based
Description: (§1) In some embodiments, cells were plated in 96-well plates coated with or without ECM at a density of 3000 cells (MIA PaCa-2, 1444, 1305, COLO 357/FG) or 1500 cells (KC6141) per well and incubated overnight prior to treatment. EIPA (10.5 μM), IPI549 (600 nM), MBQ-167 (500 nM), MRT68921 (600 nM) or erlotinib (2 μM, Sigma), ML385 (10 μM, Sigma), HCQ (10 μM or 80 μM) or their combinations were added to the wells for 24, 72 or 96 hrs. Next, 10 μL of CCK-8 was added to each well. The optical density was read at 450 nm using a microplate reader (FilterMax F5, Molecular Devices, USA) at day 0, 1, 2, 3, and 4. For glutamine-deprivation assays, cells in 96-well plates were rinsed briefly in PBS and incubated in the 0.2 mM glutamine. Glutamine-free DMEM medium was supplemented with 0.2 mM glutamine in the presence of 10% dialyzed FBS and 25 mM HEPES. For glucose-deprivation assays, cells in 96-well plates were rinsed briefly in PBS and incubated in the 0.5 mM glucose. Glucose-free DMEM medium was supplemented with 0.5 mM glucose in the presence of 10% dialyzed FBS and 25 mM HEPES. For some conditions, the medium was supplemented with a final concentration of 2% BSA (Fraction V, fatty-acid-, nuclease and protease-free, Calbiochem). For all experiments, media were replaced every 24 hrs. Viable cell counts were obtained using CCK-8 assay described as above.

[2] = tested on: 1305 primary human PDAC cells; assay: Cell viability assay (CCK-8); format: cell-based; conditions: IKKα^low 1305 cells, 3 days
Description: as §1

[3] = tested on: parental and IKKα KO MIA PaCa-2 tumors; assay: Heterotopic s.c. xenografts in nude mice; format: in vivo, mouse
Description: To evaluate the effects of MP on tumor growth in the autochthonous model, Kras^G12D;Ikkα^Δpan mice, at 4 weeks of age, were treated with vehicle or 10 mg/kg EIPA (Sigma) by intraperitoneal injection every other day for 1 month. After that, surgically removed pancreata were weighed and used for further analysis. To evaluate the effects of MP on heterotopic xenografts, female homozygous BALB/c Nu/Nu nude mice were injected subcutaneously (s.c.) in both flanks at 7 weeks of age with 10^6 parental and IKKα KO MIA PaCa-2 cells mixed at a 1:1 dilution with BD Matrigel (BD Biosciences) in a total volume of 100 μl. Mice were treated with EIPA (7.5 mg/kg) for 15 days when tumors attained an average volume of 50-100 mm^3. As a control, animals treated with vehicle (DMSO in PBS) were used. Volumes (1/2×(width^2×length)) of s.c. tumors were calculated on the basis of measurements using digital calipers after 15 days of treatment. […] Tumor volumes were calculated as above.
In some embodiments, to evaluate the effects of MP on tumor growth or survival in the autochthonous model, Kras^G12D;Ikkα^ΔPEC mice, at 4 weeks of age, were treated with vehicle or 10 mg/kg EIPA (Sigma) by i.p. injection every other day for 1 month. […] Volumes (1/2×(width^2×length)) of s.c. tumors were calculated on the basis of measurements using digital calipers after 15 days of treatment. […] Tumor volumes were calculated as above.

[4] = tested on: Kras^G12D;Ikkα^ΔPEC mice; assay: Autochthonous PDAC model; format: in vivo, mouse
Description: To evaluate the effects of MP on tumor growth in the autochthonous model, Kras^G12D;Ikkα^Δpan mice, at 4 weeks of age, were treated with vehicle or 10 mg/kg EIPA (Sigma) by intraperitoneal injection every other day for 1 month. After that, surgically removed pancreata were weighed and used for further analysis. To evaluate the effects of MP on heterotopic xenografts, female homozygous BALB/c Nu/Nu nude mice were injected subcutaneously (s.c.) in both flanks at 7 weeks of age with 10^6 parental and IKKα KO MIA PaCa-2 cells mixed at a 1:1 dilution with BD Matrigel (BD Biosciences) in a total volume of 100 μl. Mice were treated with EIPA (7.5 mg/kg) for 15 days when tumors attained an average volume of 50-100 mm^3. As a control, animals treated with vehicle (DMSO in PBS) were used. Volumes (1/2×(width^2×length)) of s.c. tumors were calculated on the basis of measurements using digital calipers after 15 days of treatment. To evaluate the combination effects of autophagy and MP inhibition on tumor growth, C57BL/6 mice were injected s.c. at 7 weeks of age with 10^7 KC6141 cells in a total volume of 100 μl. Mice were treated with vehicle, EIPA (7.5 mg/kg), MRT68921 (10 mg/kg, MCE), or EIPA and MRT68921 for 21 days when tumors attained an average volume of 100 mm^3. Tumor volumes were calculated as above.
In some embodiments, to evaluate the effects of MP on tumor growth or survival in the autochthonous model, Kras^G12D;Ikkα^ΔPEC mice, at 4 weeks of age, were treated with vehicle or 10 mg/kg EIPA (Sigma) by i.p. injection every other day for 1 month. After that, surgically removed pancreata were weighed and used for further analysis and other mice were continued to maintain for survival. To evaluate the effects of MP on heterotopic xenografts, female homozygous BALB/c Nu/Nu nude mice were injected subcutaneously (s.c.) in both flanks at 7 weeks of age with 10^6 parental and IKKα^Δ MIA PaCa-2 cells or 1334 and 1444 cells mixed at a 1:1 dilution with BD Matrigel (BD Biosciences) in a total volume of 100 μl. Mice were treated with vehicle (DMSO in PBS), EIPA (7.5 mg/kg), MRT68921 (10 mg/kg) or MRT68921 and EIPA for 15 days when tumors attained an average volume of 50-100 mm^3. Volumes (1/2×(width^2×length)) of s.c. tumors were calculated on the basis of measurements using digital calipers after 15 days of treatment. To evaluate the combination effects of autophagy and MP inhibition on tumor growth, C57BL/6 mice were injected s.c. at 7 weeks of age with 10^6 parental, Ikkα KD, Nhe1 KD or Ikkα+Nhe1 DKD KC6141 cells in a total volume of 100 μl. Mice were treated with or without vehicle, EIPA (7.5 mg/kg), MRT68921 (10 mg/kg), or EIPA and MRT68921 for 21 days when tumors attained an average volume of 50-100 mm^3. Tumor volumes were calculated as above.
Cell imaging. Immunostaining was performed as described^44. Cells were cultured on coverslips and fixed in 4% PFA for 10 min at room temperature. After washing twice in PBS, cells were incubated in PBS containing 10% FBS to block nonspecific sites of antibody adsorption. The cells were then incubated with the appropriate primary antibodies (diluted 1:100) and secondary antibodies (diluted 1:500) in PBS containing 10% FBS with or without 0.1% saponin. For cell macropinosome visualization, 24 hrs after seeding, the cells were serum starved for 18 hrs. Macropinosomes were marked using a high-molecular-mass (70 KD) TMR-Dextran (Invitrogen)-uptake assay, wherein TMR-DEX was added to serum-free medium at a final concentration of 1 mg/ml for 30 min at 37° C. At the end of the incubation period, the cells were rinsed five times in cold PBS and immediately fixed in 4% PFA. For tissue macropinosome visualization^45, fresh pancreata were cut into pieces with an approximate 5-mm cuboidal shape. A tissue section was placed in a 24-well plate and injected 150 μL of 10 mg/ml TMR-DEX solution directly into the tissue piece. Another 250 μL of diluted TMR-DEX solution were added to the well to immerse the tissue section. […]

[5] = 10 mg/kg EIPA for 1 month vs vehicle

SMILES: CCN(c1nc(N)c(C(=O)N=C(N)N)nc1Cl)C(C)C [EIPA, 5-(N-ethyl-N-isopropyl) amiloride]
- sensitivity of IKKα^Δ and ATG7^Δ cells to EIPA (CCK-8) ([1]; IKKα^Δ / ATG7^Δ 1444 cells (functional TP53)): highly sensitive
- cell viability (total viable cells relative to day 0) ([1]; WT, IKKα^Δ and ATG7^Δ 1444 cells, complete medium, EIPA 10.5 μM, days 0-4): suppression of cell viability
- sensitivity to single agent (cell viability) [2]: very sensitive
- growth of IKKα-deficient tumors / their EIPA sensitivity vs parental ([3]; IKKα KO (IKKα^Δ) MIA PaCa-2 tumors, EIPA 7.5 mg/kg for 15 days): strongly inhibited; also recorded: more EIPA sensitive
- tumor size ([3]; parental and IKKα KO MIA PaCa-2 tumors, EIPA 7.5 mg/kg for 15 days vs vehicle): reduced tumor size in both groups; also recorded: significantly suppressed
- residual cancer tissue (histological analysis) ([4]; 10 mg/kg EIPA for 1 month): very little residual cancer tissue; also recorded: little residual cancer tissue
- IHC: acinar cell loss (amylase up, CK19 and SOX9 down) [4, 5]: prevented acinar cell loss
- MP in TMR-DEX injected pancreata [4, 5]: decreased MP
- histology (H&E): ADM, advanced PanIN formation, normal parenchyma [4, 5]: inhibited acinar-to-ductal metaplasia (ADM) and advanced pancreatic intraepithelial neoplasia (PanIN) formation, and preserved the normal pancreatic parenchyma
- pancreatic weight (a measure of tumor growth) ([4]; 10 mg/kg EIPA i.p. every other day for 1 month, from 1 month of age, vs vehicle): markedly reduced; also recorded: significantly reduced
- survival (Kaplan-Meier) ([4]; 10 mg/kg EIPA vs vehicle, n=12): substantially extended; also recorded: enhanced the percent survival rate
